Source: patent publication US9611270B2, “Inhibitors of CYP17A1” (University of Kansas, priority 2014, dated 2017)
Read-outs that look alike come from different tables or passages of the source. Each block holds one compound with its values, some of them ahead of it.

Tests used:
human CYP21A2 [1] = target: human CYP21A2 (Homo sapiens (Human), UniProt P08686); experiment: Analysis of 21-hydroxyprogesterone generation by CYP21A2 using GC/MS; type: biochemical
From the text: (§1) Two methods for detecting enzymatic activity were utilized. […] University of Kansas, Lawrence, K S, 2011.
(§2) Toxicol. Appl. […] Mol. Endocrinol. 2007, 21, 1958-1968.
(§3) The CYP21A2 construct that was used, CYP21A2dH, was also engineered as according to published procedures. See, e.g., Blake, L. C.; Scott, E. E. Cytochromes P450 as therapeutic targets and counter-targets for the prevention of lung cancer and treatment of steroidogenic diseases. University of Kansas, Lawrence, K S, 2012. In this construct, the “d” refers to an 18 amino acid N-terminal deletion. An N-terminal solubility tag was added, in addition to a C-terminal four-histidine tag (“H”). […] “Full-length CYP21A2” will be specifically designated when appropriate.
(§4) Endocrinology 2011, 152, 2904-2908.
(§5) GC/MS was performed on an Agilent Technologies 6850 Network GC System equipped with a 6850 series autosampler and an Agilent Technologies 5975C VL MSD with triple axis detector. The electron energy was 70 eV and the ion source temperature was 230° C. Each sample (5 μL) was injected at an injector temperature of 280° C. and separated through an Ultra-1 capillary column (25 m×0.2 mm inner diameter, 0.33-mm film thickness; Agilent Technologies). […] Helium was used as the carrier gas with a column head pressure of 210.3 kPa (column flow: 1.0 mL/min at an oven temperature of 215° C.). For quantitative analysis, the characteristic ions of the monitored steroids were determined as their poly-TMS derivatives. Product and starting material MS counts were normalized for analysis against a known amount of estriol internal standard.
(§6) Samples were prepared for GC/MS by solid phase extraction (SPE) using SUPELCO Supel™-Select HLB SPE tubes, bed weight 30 mg (Sigma Aldrich). Parallel evaporation was performed using a GeneVac EZ-2 plus evaporator. Poly-trimethylsilyl derivatization was accomplished using a 1000:8:4 (v/w/w) N-methyl-N-(trimethylsilyl) trifluoroacetamide:ammonium iodide:dithioerythritol mixture that had been stirred at room temperature for at least 12 hours (MSTFA).
(§7) For the inhibition studies, 0.5 μM progesterone was used as the substrate concentration for inhibition studies. […] Reactions were quenched 10 minutes after the addition of NADPH by the same (internal standard-containing) solution, and allowed to stand on ice for 10 minutes.
(§8) Solid phase extraction (SPE) cartridges (30 mg HLB resin, Sigma-Aldrich) were used on a parallel draining rack. SPEs were pre-equilibrated with 2×1 mL hexanes, 2×1 mL acetone, and 3×1 mL deionized water. Reaction samples (750 μL) were loaded onto individual SPE cartridges, allowed to drain, and then washed with 1 mL water. Glass vials (4 mL capacity) were placed under each tube, and samples were eluted with 4×1 mL acetone. The vials were concentrated for at least 12 hours by parallel evaporation to remove solvent and residual water. MSTFA derivatizing agent (120 μL) was added to each sample vial, which was capped and heated to 60° C. for 60 minutes, stirring by hand intermittently.
(§9) The amount of 21-hydroxyprogesterone present was determined by GC-MS analysis using single ion monitoring (M/Z 546.35, ca. 26 min retention time), and analyzed against the estriol internal standard peak (M/Z 504.30, ca. 15 min retention time). Progesterone (M/Z 458.30, ca. 16 min retention time) was detected for quality control among reactions and standards. For instance, if a sample registered no product or standard peak as well as no progesterone peak, it was discarded from analysis due to experimental error.

human CYP21A2 [2] = experiment: as above; type: biochemical; settings: for 17A1/21A2 Sel. Factor: CYP21A2 IC50 divided by CYP17A1 IC50
From the text: as §1, §2, §3, §4, §5, §6, §7, §8, §9

human CYP17A1 = human CYP17A1 (Homo sapiens (Human), UniProt P05093); experiment: Analysis of 17α-hydroxyprogesterone generation by CYP17A1 using HPLC
From the text: Modified constructs of human CYP17A1, human CYP21A2, and human NADPH-cytochrome P450 oxidoreductase (POR) were used. These protein constructs lack a hydrophobic N-terminal transmembrane helix.
The additional A19 and H signify an N-terminal deletion of 19 amino acids for solubility (the “A19”) and a C-terminal four-histidine tag for purification (the “H”). Hereafter in the discussion of the assays below, “CYP17A1” will refer to CYP17A1HΔ19 for simplicity.
The human POR construct utilized bears an N-terminal truncation of a transmembrane helix (Δ27) to increase expression levels, and a K59Q mutation to prevent proteolysis.
Data from at least two replicates with 8 or more activity points each were averaged and analyzed for standard error.
The assays were carried out with 50 pmol of purified CYP17A1 in a 1:4 ratio with POR. The protein stocks were gently mixed together by pipetting and incubated on ice for 20 minutes. This reconstituted protein system was added to buffer (50 mM Tris, pH 7.4 and 5 mM MgCl2) containing progesterone (0-50 μM) for a total volume of 500 μL. For the inhibition studies, 50 μM progesterone was used.

[3] = CYP17A1 IC50, progesterone 17α-hydroxylation, 50 μM progesterone, purified CYP17A1 with POR 1:4, ± standard error

Chain of human CYP17A1 (P05093 20-508): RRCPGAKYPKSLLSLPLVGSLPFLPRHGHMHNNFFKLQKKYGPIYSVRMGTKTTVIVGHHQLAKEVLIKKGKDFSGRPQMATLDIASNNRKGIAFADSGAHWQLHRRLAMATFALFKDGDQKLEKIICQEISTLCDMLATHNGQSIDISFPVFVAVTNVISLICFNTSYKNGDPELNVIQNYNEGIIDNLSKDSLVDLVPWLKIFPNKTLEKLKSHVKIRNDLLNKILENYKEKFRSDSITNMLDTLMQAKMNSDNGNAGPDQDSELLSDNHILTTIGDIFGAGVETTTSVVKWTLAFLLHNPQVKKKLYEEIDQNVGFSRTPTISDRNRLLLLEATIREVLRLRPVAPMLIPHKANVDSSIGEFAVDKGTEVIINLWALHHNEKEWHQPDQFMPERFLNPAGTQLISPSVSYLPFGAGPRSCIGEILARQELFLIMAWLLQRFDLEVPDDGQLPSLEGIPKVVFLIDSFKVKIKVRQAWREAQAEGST
Chain of human CYP21A2 (Homo sapiens (Human), UniProt P08686) (P08686 19-495): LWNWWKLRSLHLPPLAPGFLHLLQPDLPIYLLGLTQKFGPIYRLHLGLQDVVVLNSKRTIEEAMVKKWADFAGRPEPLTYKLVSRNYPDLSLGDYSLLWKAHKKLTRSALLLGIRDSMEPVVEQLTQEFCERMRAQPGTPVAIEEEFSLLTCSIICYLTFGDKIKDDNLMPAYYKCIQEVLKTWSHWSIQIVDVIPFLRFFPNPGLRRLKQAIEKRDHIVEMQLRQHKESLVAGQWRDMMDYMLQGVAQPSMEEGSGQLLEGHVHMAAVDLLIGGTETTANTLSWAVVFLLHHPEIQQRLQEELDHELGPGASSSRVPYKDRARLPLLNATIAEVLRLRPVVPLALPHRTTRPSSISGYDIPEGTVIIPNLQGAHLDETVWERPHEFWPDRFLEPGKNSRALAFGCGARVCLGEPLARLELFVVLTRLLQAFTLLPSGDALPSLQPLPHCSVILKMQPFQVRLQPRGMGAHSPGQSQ

SMILES: C[C@]12CC[C@H](O)CC1=C(C(N)=O)C[C@@H]1[C@@H]2CC[C@]2(C)C(c3cccnc3)=CC[C@@H]12 [Compound 42, 3β-Hydroxy-17-(3-pyridyl)-androst-5,16-dien-6-amide]
- IC50 (human CYP21A2 [1]): 8700 nM
- 17A1/21A2 Sel. Factor (human CYP21A2 [2]): 72.2
- CYP17A1/CYP21A2 selectivity relative to abiraterone (human CYP21A2 [2]; times greater than abiraterone): about 30 times
- IC50 (human CYP17A1; [3]): 120 ± 12 nM

SMILES: C[C@]12CC[C@H](O)CC1C(C#N)=C[C@@H]1[C@@H]2CC[C@]2(C)C(c3cccnc3)=CC[C@@H]12 (stereo partly drawn) [Compound 37, 6-Cyano-17-(3-pyridyl)-androst-6,16-dien-3β-ol]
- IC50 (human CYP17A1; [3]): 244 ± 14 nM

- IC50 (human CYP17A1): 1380 nM
SMILES: CC(=O)N1CC[C@@H]2[C@H](CC[C@]3(C)C(c4cccnc4)=CC[C@@H]23)[C@@]2(C)CC[C@H](O)C[C@H]12

SMILES: C[C@]12CC[C@H](O)CC1=C(C#N)C[C@@H]1[C@@H]2CC[C@]2(C)C(c3cccnc3)=CC[C@@H]12 [Compound 38, 6-Cyano-17-(3-pyridyl)-androst-5,16-dien-3β-ol]
- IC50 (human CYP17A1; [3]): 174 ± 8 nM

SMILES: C[C@]12CC[C@H](O)CC1=C([N+](=O)[O-])C[C@@H]1[C@@H]2CC[C@]2(C)C(c3cccnc3)=CC[C@@H]12 [Compound 41, 6-Nitro-17-(3-pyridyl)-androst-5,16-dien-3β-ol]
- IC50 (human CYP21A2 [1]): 831 ± 96 nM
- 17A1/21A2 Sel. Factor (human CYP21A2 [2]): 4.5
- IC50 (human CYP17A1; [3]): 183 ± 23 nM

SMILES: C[C@]12CC[C@H](O)C[C@@H]1/C(=N/O)C[C@@H]1[C@@H]2CC[C@]2(C)C(c3cccnc3)=CC[C@@H]12 [Compound 33, 6-Oxime-17-(3-pyridyl)-androst-16-en-3β-ol]
- IC50 (human CYP21A2 [1]): 10300 nM
- IC50 (human CYP17A1): 120 to 183 nM
- IC50 (human CYP17A1; [3]): 150 ± 10 nM

SMILES: C[C@]12CC[C@H]3[C@@H](C[C@@H]4O[C@@]45C[C@@H](O)CC[C@]35C)[C@@H]1CC=C2c1cccnc1
- IC50 (human CYP17A1; [3]): 428 ± 20 nM

SMILES: CNC(=O)c1ccc2cc([C@@]3(O)CCn4cncc43)ccc2c1 [orteronel, reference compound]
- 17A1/21A2 Sel. Factor (human CYP21A2 [2]): 1.0
- CYP17A1 progesterone hydroxylation inhibitory activity (in words) (human CYP17A1; progesterone 17α-hydroxylation): significantly less potent

SMILES: C[C@]12CC[C@H](O)CC1=CC[C@@H]1[C@@H]2CC[C@]2(C)C(n3cnc4ccccc43)=CC[C@@H]12 [galaterone, reference compound]
- 17A1/21A2 Sel. Factor (human CYP21A2 [2]): 0.9
- IC50 (human CYP17A1; [3]): 282 ± 16 nM

- IC50 (human CYP17A1): 5410 nM
SMILES: C[C@]12CC[C@H](O)C[C@@H]1NC(=O)C[C@@H]1[C@@H]2CC[C@]2(C)C(c3cccnc3)=CC[C@@H]12

- IC50 (human CYP17A1): 199 ± 13 nM
SMILES: C[C@]12CC[C@H](O)C[C@@H]1n1nnnc1C[C@@H]1[C@@H]2CC[C@]2(C)C(c3cccnc3)=CC[C@@H]12

SMILES: C[C@]12CC[C@H](O)C[C@@H]1C(=O)C[C@@H]1[C@@H]2CC[C@]2(C)C(c3cccnc3)=CC[C@@H]12
- IC50 (human CYP17A1): 208 ± 12 nM

SMILES: C[C@]12CC[C@H](O)CC1=CC[C@@H]1[C@@H]2CC[C@]2(C)C(c3cccnc3)=CC[C@@H]12 [abiraterone, 17-(3-Pyridyl)-androst-5,16-dien-3β-ol, reference compound]
- 17A1/21A2 Sel. Factor (human CYP21A2 [2]): 2.3
- IC50 (human CYP17A1): 130 nM

SMILES: CN[C@H]1C[C@@H]2[C@H](CC[C@]3(C)C(c4cccnc4)=CC[C@@H]23)[C@@]2(C)CC[C@H](O)CC12 (stereo partly drawn)
- IC50 (human CYP17A1): 3970 nM
